Results on ten compounds are retold here after PubChem BioAssay (NCI).

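96-well plates; 48 h exposure; 5 concentrations. Endpoints by linear interpolation between flanking doses. Not reached: highest tested concentration assigned. Here, GI50 denotes the concentration required for 50% inhibition of growth. TGI marks complete inhibition of growth.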 Where a SMILES comes first, the peptide text is derived from it. [ ]: non-standard residue; d: D form. ξ: configuration not given here. Pentanoyl(2-O,4-OH,5-Cl) = O=C(O)C(O)CC(O)CCl; Ile(3ξ) = CCC(C)[C@H](N)C(=O)O; NMeV = CN[C@H](C(=O)O)C(C)C; NMeA = CN[C@@H](C)C(=O)O; βAla = NCCC(=O)O

Among the test systems are HCT-15 colon; HL-60(TB) leukemia; HOP-92 NSCLC; MDA-MB-231 breast; OVCAR-4 ovarian; RPMI-8226 leukemia; SF-268 CNS; UACC-257 melanoma.
Holding throughout (test): NCI anticancer screen, dose series, 48 h

For `CCCCCCCCCCCC(c1ccccc1)[N+](C)(C)C` (stereo not given), the GI50 is 14.1 µM in the assay with HCT-15 colon; 0.291 µM with HL-60(TB) leukemia; 1.06 µM in the assay on HOP-92 NSCLC; 1.68 µM in the assay on MDA-MB-231 breast; 1.13 µM with OVCAR-4 ovarian; 0.462 µM in the assay with RPMI-8226 leukemia. The GI50 was 1.26 µM in the assay on SF-268 CNS and 1.37 µM in the assay with UACC-257 melanoma. The TGI with HCT-15 colon turned out to be 37 µM; in the assay with HL-60(TB) leukemia, 1.47 µM; in the assay on HOP-92 NSCLC, 2.86 µM; in the assay with MDA-MB-231 breast it was 4.25 µM; with OVCAR-4 ovarian, 4.05 µM; with RPMI-8226 leukemia, 1.92 µM. The TGI in the assay with SF-268 CNS amounted to 2.61 µM; with UACC-257 melanoma it was 2.98 µM.

`CCC(C)[C@@H]1NC(=O)[C@@H]2CCCN2C(=O)C(CC(O)CCl)OC(=O)CCNC(=O)[C@H](C)N(C)C(=O)[C@H](C(C)C)N(C)C1=O` (stereo not given in full) (cyclo([Ile(3ξ)][NMeV][NMeA][βAla][Pentanoyl(2-O,4-OH,5-Cl)]P)): the TGI was greater than 100 µM with HCT-15 colon; greater than 100 µM with HL-60(TB) leukemia; 8.13 µM in the assay on HOP-92 NSCLC; greater than 100 µM in the assay on MDA-MB-231 breast; greater than 100 µM in the assay with OVCAR-4 ovarian; greater than 100 µM in the assay on RPMI-8226 leukemia. The results for the TGI in the assay on SF-268 CNS and in the assay with UACC-257 melanoma were greater than 100 µM and greater than 86 µM, respectively.

Consider `CC(=O)Nc1ccc(CC[C@H]2CCC/C=C/[C@@H]3C[C@H](O)C[C@H]3[C@H](O)/C=C/C(=O)O2)cc1`, for which the GI50 was 0.471 µM in the assay with HCT-15 colon; 0.337 µM in the assay with HL-60(TB) leukemia; 0.217 µM with HOP-92 NSCLC; 0.0826 µM with MDA-MB-231 breast; 0.105 µM in the assay on OVCAR-4 ovarian; 0.222 µM with RPMI-8226 leukemia. Further, the values for the GI50 in the assay with SF-268 CNS and in the assay with UACC-257 melanoma were 0.0594 µM and 0.0596 µM, respectively. For the same compound, the TGI in the assay with HCT-15 colon is greater than 100 µM; in the assay with HL-60(TB) leukemia, 3.95 µM; with HOP-92 NSCLC it was 0.791 µM; in the assay with MDA-MB-231 breast, 0.252 µM; with RPMI-8226 leukemia, 0.591 µM; in the assay with SF-268 CNS, greater than 100 µM. Moreover, in the assay with UACC-257 melanoma, the TGI is greater than 100 µM.

On to `CCCN1CCC(Oc2cc(Nc3nc(Nc4cccc(F)c4C(N)=O)c4cc[nH]c4n3)c(OC)cc2Cl)CC1`, for which the GI50 in the assay with HCT-15 colon is 1.44 µM; in the assay with HL-60(TB) leukemia it was 2.54 µM; in the assay on HOP-92 NSCLC, 0.309 µM; in the assay with MDA-MB-231 breast, 2.16 µM; in the assay on OVCAR-4 ovarian, 3.67 µM; in the assay on RPMI-8226 leukemia, 2.11 µM. Further, the GI50 in the assay with SF-268 CNS was 3.79 µM; in the assay with UACC-257 melanoma, 3.28 µM. Further, the TGI with HCT-15 colon came out at 6.84 µM; in the assay on HL-60(TB) leukemia it was 8.31 µM; with HOP-92 NSCLC, 3.42 µM; in the assay on MDA-MB-231 breast, 5.52 µM; in the assay with OVCAR-4 ovarian, 8.05 µM; in the assay with RPMI-8226 leukemia it was 6.35 µM. The results for the TGI with SF-268 CNS and in the assay with UACC-257 melanoma were 8.32 µM and 6.75 µM, respectively.

Take `COc1ccc(-c2nn3ncccc3c2-c2ccnc(Nc3ccc(F)c(F)c3)n2)cc1`: the GI50 in the assay with HCT-15 colon is 8.77 µM; in the assay on HL-60(TB) leukemia, 13.2 µM; with HOP-92 NSCLC, 3.99 µM; with MDA-MB-231 breast, 9.1 µM; in the assay on OVCAR-4 ovarian it was 12.4 µM; in the assay on RPMI-8226 leukemia it was 14.7 µM. Besides, the GI50 in the assay on SF-268 CNS was 14.2 µM; in the assay on UACC-257 melanoma, 12 µM. Further, the TGI with HCT-15 colon, in the assay with HL-60(TB) leukemia, with HOP-92 NSCLC, in the assay with MDA-MB-231 breast, in the assay with OVCAR-4 ovarian and in the assay with RPMI-8226 leukemia was greater than 25 µM in each case. Besides, the TGI in the assay with SF-268 CNS and in the assay with UACC-257 melanoma was greater than 25 µM throughout.

As for `COc1cccc2c1C(=O)c1c(O)c3c(c(O)c1C2=O)C[C@@](O)(/C(C)=N/NC(=O)c1cccc([N+](=O)[O-])c1)C[C@@H]3OC1CC(N)C(O)C(C)O1` (stereo not given in full), the GI50 with HCT-15 colon is 1.57 µM; in the assay on HL-60(TB) leukemia, 0.146 µM; in the assay on HOP-92 NSCLC it was 0.201 µM; with MDA-MB-231 breast, 1.59 µM; with OVCAR-4 ovarian it was 0.65 µM; with RPMI-8226 leukemia, 0.2 µM. Further, the GI50 in the assay on SF-268 CNS is 0.269 µM; in the assay on UACC-257 melanoma, 0.757 µM. Besides, the TGI in the assay on HCT-15 colon was 14.2 µM; with HL-60(TB) leukemia it was 0.923 µM; in the assay with HOP-92 NSCLC, 4.71 µM; with MDA-MB-231 breast, 21.3 µM; with OVCAR-4 ovarian, 11.3 µM; with RPMI-8226 leukemia it was 1.86 µM. Further, the values for the TGI with SF-268 CNS and in the assay with UACC-257 melanoma were 2.26 µM and 3.43 µM, respectively.

Regarding `COc1cc2c(cc1OCCCCCOc1ccc(-c3nc4ccccc4s3)cc1)N=C[C@@H]1CCCN1C2=O`, the GI50 in the assay with HCT-15 colon is 2.46 µM; with HL-60(TB) leukemia, 1.35 µM; with HOP-92 NSCLC, 0.886 µM; in the assay with MDA-MB-231 breast, 1.02 µM; with OVCAR-4 ovarian, 3.02 µM; in the assay on RPMI-8226 leukemia it was 1.03 µM. Further, the GI50 in the assay with SF-268 CNS was 5.62 µM; in the assay on UACC-257 melanoma, 6.61 µM. The TGI is 22.2 µM in the assay on HCT-15 colon; 8.72 µM in the assay on HL-60(TB) leukemia; 3.62 µM with HOP-92 NSCLC; 4.2 µM in the assay on MDA-MB-231 breast; greater than 76.5 µM in the assay on OVCAR-4 ovarian; 4.14 µM in the assay with RPMI-8226 leukemia. The TGI came out at 31.6 µM in the assay on SF-268 CNS and 21.2 µM with UACC-257 melanoma.

For `O=c1oc2ccccc2cc1P(=O)(O)O`, the TGI in the assay on HCT-15 colon, in the assay on HL-60(TB) leukemia, in the assay on HOP-92 NSCLC, in the assay on MDA-MB-231 breast, in the assay on OVCAR-4 ovarian and in the assay on RPMI-8226 leukemia was greater than 100 µM throughout. In addition, the TGI with SF-268 CNS and in the assay with UACC-257 melanoma was greater than 100 µM in each case.

`CC(C)(C)CNCCO`: the TGI in the assay on HCT-15 colon, in the assay with HL-60(TB) leukemia, with HOP-92 NSCLC, in the assay with MDA-MB-231 breast, in the assay on OVCAR-4 ovarian and in the assay on RPMI-8226 leukemia was greater than 100 µM in each case. Also, the TGI in the assay on SF-268 CNS and in the assay with UACC-257 melanoma was greater than 100 µM each time.

Turning to `C/C(=C1\C(=O)Nc2ccccc21)c1cccc(/C(C)=C2/C(=O)Nc3ccccc32)n1`, the GI50 with HCT-15 colon is 4.21 µM; in the assay on HL-60(TB) leukemia it was 16 µM; in the assay with HOP-92 NSCLC, 15.7 µM; with MDA-MB-231 breast, 11.5 µM; with OVCAR-4 ovarian it was 43 µM; in the assay on RPMI-8226 leukemia it was 4.87 µM. Besides, the GI50 with SF-268 CNS is 7.42 µM; with UACC-257 melanoma, 9.43 µM. The TGI with HCT-15 colon was 34.9 µM; in the assay with HL-60(TB) leukemia, greater than 100 µM; in the assay on HOP-92 NSCLC it was 85.3 µM; in the assay with MDA-MB-231 breast it was 74.7 µM; in the assay with OVCAR-4 ovarian, greater than 100 µM; with RPMI-8226 leukemia, greater than 100 µM. For the same compound, the TGI with SF-268 CNS was found to be 71.8 µM; in the assay on UACC-257 melanoma, 86 µM.
